Source: patent US20090124606A1, “Composition for Treatment of Psychosis” (priority 2005, published 2009)

Columns and labels:
NMRI mice = assay: Inhibition of catalepsy generated by haloperidol (45° inclined grid); format: in vivo
Description: Experiments were elaborated on 20-25 g weight NMRI mice. Groups of 10 mice were treated intraperitoneally with 15 mg/kg of haloperidol and carrier agent. Deramciclane (and carriers) were administered orally in different doses 60 minutes later. After a subsequent 60 minutes period mice were placed to a grid which has an inclination angle of 45°. In case of the animals were motionless for more than 30 seconds on the grid the events were seen as catalepsy. The procedure was repeated in every 30 minutes for 3 hours.
The effects are shown by percentage of changes compared to control group.

5-HT2A = 5-HT2A (Homo sapiens, UniProt P28223); details: read-out: Receptor Affinity (Ki); cited from earlier work
[1] = deramciclane alone; cited from earlier work
Dopamine D2 = Dopamine D2 (Homo sapiens, UniProt P14416); details: read-out: Receptor Affinity (Ki); cited from earlier work
5-HT2C = 5-HT2C (Homo sapiens, UniProt P28335); details: read-out: Receptor Affinity (Ki); cited from earlier work
Chain of 5-HT2C (P28335 33-458, species assumed): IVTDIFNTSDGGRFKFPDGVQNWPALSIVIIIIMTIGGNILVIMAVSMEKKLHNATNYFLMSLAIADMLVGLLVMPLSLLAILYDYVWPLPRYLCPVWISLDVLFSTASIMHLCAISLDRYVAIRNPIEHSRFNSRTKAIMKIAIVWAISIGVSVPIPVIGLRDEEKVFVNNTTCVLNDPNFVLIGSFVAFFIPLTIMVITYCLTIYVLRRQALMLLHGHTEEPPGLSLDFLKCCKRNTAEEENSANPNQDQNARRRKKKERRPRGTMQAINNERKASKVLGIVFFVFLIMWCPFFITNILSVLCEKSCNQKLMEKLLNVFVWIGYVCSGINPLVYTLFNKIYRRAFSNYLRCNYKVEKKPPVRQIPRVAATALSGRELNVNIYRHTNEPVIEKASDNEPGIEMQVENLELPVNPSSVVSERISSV

Chain of 5-HT2A (P28223 whole entry, species assumed): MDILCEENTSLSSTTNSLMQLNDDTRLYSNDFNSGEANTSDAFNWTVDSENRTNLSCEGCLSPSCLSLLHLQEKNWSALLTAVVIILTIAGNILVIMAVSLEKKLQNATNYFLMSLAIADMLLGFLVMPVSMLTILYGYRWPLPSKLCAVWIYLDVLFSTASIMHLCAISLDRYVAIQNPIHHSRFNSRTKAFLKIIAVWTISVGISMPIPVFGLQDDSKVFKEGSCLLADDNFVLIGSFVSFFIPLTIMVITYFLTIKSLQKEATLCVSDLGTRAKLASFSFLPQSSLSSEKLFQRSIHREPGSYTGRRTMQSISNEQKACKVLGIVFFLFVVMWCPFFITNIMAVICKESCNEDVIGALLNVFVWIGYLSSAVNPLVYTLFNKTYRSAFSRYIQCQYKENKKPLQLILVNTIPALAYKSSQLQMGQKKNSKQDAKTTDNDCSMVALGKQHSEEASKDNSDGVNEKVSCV
Chain of Dopamine D2 (P14416 whole entry): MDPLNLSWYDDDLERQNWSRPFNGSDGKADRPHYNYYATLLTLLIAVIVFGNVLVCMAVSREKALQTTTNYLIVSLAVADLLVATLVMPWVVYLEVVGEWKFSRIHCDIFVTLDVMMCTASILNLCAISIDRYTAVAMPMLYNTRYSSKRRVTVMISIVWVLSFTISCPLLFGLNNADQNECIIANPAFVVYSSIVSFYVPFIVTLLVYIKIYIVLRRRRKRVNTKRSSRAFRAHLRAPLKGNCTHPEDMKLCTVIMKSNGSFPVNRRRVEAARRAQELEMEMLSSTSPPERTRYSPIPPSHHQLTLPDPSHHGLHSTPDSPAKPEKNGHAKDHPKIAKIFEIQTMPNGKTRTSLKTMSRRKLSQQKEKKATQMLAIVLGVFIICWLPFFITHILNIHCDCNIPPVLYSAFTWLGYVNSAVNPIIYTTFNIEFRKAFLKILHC

SMILES | Catalepsy (average ± SE)/10 animals (NMRI mice; deramciclane 20 mg/kg po. + haloperidol 15 mg/kg ip., p < 0.05 vs haloperidol) | Catalepsy (average ± SE)/10 animals (NMRI mice; deramciclane 40 mg/kg po. + haloperidol 15 mg/kg ip., p < 0.05 vs haloperidol) | Catalepsy (average ± SE)/10 animals (NMRI mice; deramciclane 80 mg/kg po. + haloperidol 15 mg/kg ip., p < 0.05 vs haloperidol) | Inhibition of catalepsy generated by haloperidol (in words) (NMRI mice; deramciclane 20-80 mg/kg po., haloperidol 15 mg/kg ip.) | Ki (5-HT2A) | Catalepsy caused by the compound by itself (in words) [1] | Ki (Dopamine D2) | Ki (5-HT2C) | Catalepsy (average ± SE)/10 animals (NMRI mice; haloperidol 15 mg/kg ip. alone (plus carrier))
CN(C)CCO[C@]1(c2ccccc2)C[C@H]2CC[C@]1(C)C2(C)C [Deramciclane, (1R,2S,4R)-(−)-2-[N,N-(dimethylamino-ethoxy)]-2-phenyl-1,7,7-trimethyl-biciklo[2.2.1]heptane] | 6.5 ± 0.7 /10 animals | 4.7 ± 1.3 /10 animals | 3.5 ± 1.5 /10 animals | inhibits the catalepsy generated by haloperidol in a dose dependent way | 0.011 µM | does not cause catalepsy by itself | 0.113 µM | 0.027 µM | –
O=C(CCCN1CCC(O)(c2ccc(Cl)cc2)CC1)c1ccc(F)cc1 [Haloperoidol, haloperidol, reference compound] | – | – | – | – | – | – | – | – | 9.3 ± 0.4 /10 animals
